≈ marks a conversion by molar mass, not a printed value.
Key:
Assay type in all cases: functional
Bacillus subtilis [1] = assay: Antibacterial activity against Bacillus subtilis isolate 14 harboring 608C-T KsgA mutant and expressing amino acid exchange at S203F in KsgA gene
Bacillus subtilis [2] = assay: Antibacterial activity against Bacillus subtilis isolate 15 harboring 324C-CTC KsgA mutant and expressing amino acid exchange at K109S, Val 125 - stop codon in KsgA gene
Bacillus subtilis [3] = assay: Antibacterial activity against Bacillus subtilis isolate 16 harboring 181G-GG KsgA mutant and expressing amino acid exchange at A61G, Glu 77- stop codon in KsgA gene
Bacillus subtilis [4] = assay: Antibacterial activity against Bacillus subtilis isolate 17 harboring 709-850 deficient KsgA mutant and expressing amino acid exchange at K237L in KsgA gene
Bacillus subtilis [5] = assay: Antibacterial activity against Bacillus subtilis isolate 18 harboring 495-525 deficient KsgA mutant and expressing amino acid exchange at N165E, Ala 177- stop codon in KsgA gene
Bacillus subtilis [6] = assay: Antibacterial activity against Bacillus subtilis isolate 19 harboring 230A-G KsgA mutant and expressing amino acid exchange at A61G, E77K in KsgA gene
Bacillus subtilis [7] = assay: Antibacterial activity against Bacillus subtilis isolate KO-847 KsgA mutant after 2 days; conditions: isolate KO-847, 48 h
Bacillus subtilis [8] = assay: Antibacterial activity against Bacillus subtilis isolate KO-894 speD mutant after 2 days; conditions: isolate KO-894, 48 h
Bacillus subtilis [9] = assay: Antibacterial activity against Bacillus subtilis isolate KO-875 KsgA mutant and harboring 19G-T speD mutant and expressing amino acid exchange at G7Win speD gene after 2 days; conditions: isolate KO-875, 48 h
Bacillus subtilis [10] = assay: Antibacterial activity against Bacillus subtilis isolate KO-876 KsgA mutant and harboring 22C-GT speD mutant after 2 days; conditions: isolate KO-876, 48 h
Bacillus subtilis [11] = assay: Antibacterial activity against Bacillus subtilis isolate KO-877 KsgA mutant and harboring 191A-T speD mutant and expressing amino acid exchange at G64Vin speD gene after 2 days; conditions: isolate KO-877, 48 h
Bacillus subtilis [12] = assay: Antibacterial activity against Bacillus subtilis isolate KO-878 KsgA mutant and harboring 193T-A speD mutant and expressing amino acid exchange at S65T in speD gene after 2 days; conditions: isolate KO-878, 48 h
Bacillus subtilis [13] = assay: Antibacterial activity against Bacillus subtilis isolate KO-879 KsgA mutant and harboring 236G-T speD mutant and expressing amino acid exchange at S79I in speD gene after 2 days; conditions: isolate KO-879, 48 h
Bacillus subtilis [14] = assay: Antibacterial activity against wild-type Bacillus subtilis 168 after 15 hrs; conditions: subsp. subtilis str. 168, 15 h
Escherichia coli = assay: Antibacterial activity against Escherichia coli BW25113 after 15 hrs; conditions: BW25113, 15 h
Bacillus subtilis [15] = assay: Antibacterial activity against Bacillus subtilis RIK543 after 15 hrs; conditions: RIK543, 15 h
Bacillus subtilis [16] = assay: Antibacterial activity against Bacillus subtilis isolate 1 harboring 253-261 deficient KsgA and expressing amino acid exchange at 85-87 Ile, Leu, Lys-deletionin KsgA gene
Bacillus subtilis [17] = assay: Antibacterial activity against Bacillus subtilis isolate 2 harboring 708-717 deficient KsgA and expressing amino acid exchange at K235S, Leu240-stop codon in KsgA gene
Bacillus subtilis [18] = assay: Antibacterial activity against Bacillus subtilis isolate 3 harboring 301C-T KsgA and expressing amino acid exchange at Gln101-stop codon in KsgA gene
Bacillus subtilis [19] = assay: Antibacterial activity against Bacillus subtilis isolate 4 harboring 709-850 deficient KsgA and expressing amino acid exchange at K237L in KsgA gene
Bacillus subtilis [20] = assay: Antibacterial activity against Bacillus subtilis isolate 5 harboring 478-492 deficient KsgA and expressing amino acid exchange at Glu 160, Ala 164 deletion in KsgA gene
Bacillus subtilis [21] = assay: Antibacterial activity against Bacillus subtilis isolate 6 harboring 272C-G KsgA mutant and expressing amino acid exchange at Ser 91 -stop codon in KsgA gene
Bacillus subtilis [22] = assay: Antibacterial activity against Bacillus subtilis isolate 7 harboring 198T-TT KsgA mutant and expressing amino acid exchange at A67C, Glu 77- stop codon in KsgA gene
Bacillus subtilis [23] = assay: Antibacterial activity against Bacillus subtilis isolate 8 harboring 515G-GGG KsgA mutant and expressing amino acid exchange at S173A, Met 188 -stop codon in KsgA gene
Bacillus subtilis [24] = assay: Antibacterial activity against Bacillus subtilis isolate 9 harboring 515G-GG KsgA mutant and expressing amino acid exchange at S173L,Asn 200 -stop codon in KsgA gene
Bacillus subtilis [25] = assay: Antibacterial activity against Bacillus subtilis isolate 10 harboring 706C-T KsgA mutant and expressing amino acid exchange at R236C in KsgA gene
Bacillus subtilis [26] = assay: Antibacterial activity against Bacillus subtilis isolate 11 harboring 274-295 deficient KsgA mutant and expressing amino acid exchange at P92F, Thr 97- stop codon in KsgA gene
Bacillus subtilis [27] = assay: Antibacterial activity against Bacillus subtilis isolate 12 harboring 597-615 deficient KsgA mutant and expressing amino acid exchange at N200F, Asp 202- stop codon in KsgA gene
Bacillus subtilis [28] = assay: Antibacterial activity against Bacillus subtilis isolate 13 harboring 393C-G KsgA mutant and expressing amino acid exchange at Tyr 131- stop codon in KsgA gene

`C[C@H]1O[C@H](O[C@H]2[C@H](O)[C@@H](O)[C@@H](O)[C@H](O)[C@@H]2O)[C@@H](N)C[C@@H]1NC(=N)C(=O)O` [KASUGAMYCIN] gave an MIC (Bacillus subtilis [1]) of 1500 µg/mL (≈ 3.95 mM), an MIC (Bacillus subtilis [2]) of 1500 µg/mL (≈ 3.95 mM) and an MIC (Bacillus subtilis [3]) of 1500 µg/mL (≈ 3.95 mM). It also gave an MIC (Bacillus subtilis [4]) of 1500 µg/mL (≈ 3.95 mM), an MIC (Bacillus subtilis [5]) of 1500 µg/mL (≈ 3.95 mM) and an MIC (Bacillus subtilis [6]) of 1500 µg/mL (≈ 3.95 mM). It also gave an MIC (Bacillus subtilis [7]) of 5000 µg/mL (≈ 13.2 mM), an MIC (Bacillus subtilis [8]) of 4000 µg/mL (≈ 10.5 mM) and an MIC (Bacillus subtilis [9]) of 15000 µg/mL (≈ 39.5 mM). For the same compound, the MIC (Bacillus subtilis [10]) was 15000 µg/mL (≈ 39.5 mM), the MIC (Bacillus subtilis [11]) was 15000 µg/mL (≈ 39.5 mM) and the MIC (Bacillus subtilis [12]) was 15000 µg/mL (≈ 39.5 mM). The MIC (Bacillus subtilis [13]) was 15000 µg/mL (≈ 39.5 mM), the MIC (Bacillus subtilis [14]) was 1500 µg/mL (≈ 3.95 mM) and the MIC (Escherichia coli) was 200 µg/mL (≈ 0.527 mM). The MIC (Bacillus subtilis [15]) was 500 µg/mL (≈ 1.32 mM), the MIC (Bacillus subtilis [16]) was 1500 µg/mL (≈ 3.95 mM) and the MIC (Bacillus subtilis [17]) was 1500 µg/mL (≈ 3.95 mM). The MIC (Bacillus subtilis [18]) was 1500 µg/mL (≈ 3.95 mM), the MIC (Bacillus subtilis [19]) was 1500 µg/mL (≈ 3.95 mM) and the MIC (Bacillus subtilis [20]) was 1500 µg/mL (≈ 3.95 mM). For the same compound, the MIC (Bacillus subtilis [21]) was 1500 µg/mL (≈ 3.95 mM), the MIC (Bacillus subtilis [22]) was 1500 µg/mL (≈ 3.95 mM) and the MIC (Bacillus subtilis [23]) was 1500 µg/mL (≈ 3.95 mM). For the same compound, the MIC (Bacillus subtilis [24]) was 1500 µg/mL (≈ 3.95 mM), the MIC (Bacillus subtilis [25]) was 1500 µg/mL (≈ 3.95 mM) and the MIC (Bacillus subtilis [26]) was 1500 µg/mL (≈ 3.95 mM). For the same compound, the MIC (Bacillus subtilis [27]) was 1500 µg/mL (≈ 3.95 mM) and the MIC (Bacillus subtilis [28]) was 1500 µg/mL (≈ 3.95 mM).
With `CO[C@H]1/C=C/O[C@@]2(C)Oc3c(C)c(O)c4c(O)c(c(/C=N/N5CCN(C)CC5)c(O)c4c3C2=O)NC(=O)/C(C)=C\C=C\[C@H](C)[C@H](O)[C@@H](C)[C@@H](O)[C@@H](C)[C@H](OC(C)=O)[C@@H]1C` [RIFAMPIN] the MIC (Bacillus subtilis [14]) was 0.1 µg/mL (≈ 0.000122 mM) and the MIC (Bacillus subtilis [15]) was 0.01 µg/mL (≈ 1.22e-05 mM).
Work on `CN[C@@H]1[C@H](O[C@H]2[C@H](O[C@H]3[C@H](O)[C@@H](O)[C@H](N=C(N)N)[C@@H](O)[C@@H]3N=C(N)N)O[C@@H](C)[C@]2(O)C=O)O[C@@H](CO)[C@H](O)[C@H]1O` [STREPTOMYCIN] yielded an MIC (Bacillus subtilis [14]) of 15 µg/mL (≈ 0.0258 mM) and an MIC (Bacillus subtilis [15]) of 5 µg/mL (≈ 0.0086 mM).
`C=C(NC(=O)C(=C)NC(=O)c1csc(C2=N[C@@H]3c4csc(n4)[C@H]4NC(=O)c5csc(n5)[C@H]([C@](C)(O)[C@@H](C)O)NC(=O)[C@H]5CSC(=N5)/C(=C/C)NC(=O)[C@H]([C@@H](C)O)NC(=O)c5csc(n5)[C@]3(CC2)NC(=O)[C@H](C)NC(=O)C(=C)NC(=O)[C@H](C)NC(=O)[C@H]([C@@H](C)CC)N[C@@H]2C=Cc3c([C@H](C)O)cc(nc3[C@H]2O)C(=O)O[C@@H]4C)n1)C(N)=O` [THIOSTREPTON] was tested, and the MIC (Bacillus subtilis [14]) was 0.04 µg/mL (≈ 2.4e-05 mM) and the MIC (Bacillus subtilis [15]) was 0.02 µg/mL (≈ 1.2e-05 mM).

Reference: ChEMBL document CHEMBL1629584, “Inactivation of KsgA, a 16S rRNA methyltransferase, causes vigorous emergence of mutants with high-level kasugamycin resistance” (2009)
